Where “and” joins values, the source holds several entries; their conditions need not be identical. Equal values may be shown once. Inconclusive results and toxic doses are left out. Peptide text beside a SMILES is read from it. * marks the point of attachment. Cbz = O=C(OCc1ccccc1)*
System: BDF1 mice, B16 melanoma ip, median survival T/C
Assay: NCI In Vivo Anticancer Drug Screen. Data for tumor model B16 Melanoma (intraperitoneal) in B6D2F1 (BDF1) mice
Details: endpoint: median survival time, higher = longer survival
Outline: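 Read-out: survival or tumor size, given as treated/control ratio. Controls received vehicle only; animals bore transplantable tumors.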

[1] = dose: 50.0 mg/kg/injection, schedule: Q01DX009 (ip), vehicle: saline with Tween-80
[2] = dose: 100.0 mg/kg/injection, schedule: Q01DX009 (ip), vehicle: saline with Tween-80
[3] = dose: 1.56 mg/kg/injection, schedule: Q01DX009 (ip), vehicle: Klucel (hydroxypropylcellulose) (HPC)
[4] = dose: 6.25 mg/kg/injection, schedule: Q01DX009 (ip), vehicle: Klucel (hydroxypropylcellulose) (HPC)
[5] = dose: 200.0 mg/kg/injection, schedule: Q01DX009 (ip), vehicle: saline with Tween-80
[6] = dose: 25.0 mg/kg/injection, schedule: Q01DX009 (ip), vehicle: saline with Tween-80
[7] = dose: 6.25 mg/kg/injection, schedule: Q01DX009 (ip), vehicle: saline
[8] = dose: 12.5 mg/kg/injection, schedule: Q01DX009 (ip), vehicle: saline
[9] = dose: 25.0 mg/kg/injection, schedule: Q01DX009 (ip), vehicle: saline
[10] = dose: 3.13 mg/kg/injection, schedule: Q01DX009 (ip), vehicle: Klucel (hydroxypropylcellulose) (HPC)
[11] = dose: 50.0 mg/kg/injection, schedule: Q01DX009 (ip), vehicle: saline
[12] = dose: 100.0 mg/kg/injection, schedule: Q01DX009 (ip), vehicle: saline
[13] = dose: 12.5 mg/kg/injection, schedule: Q01DX009 (ip), vehicle: saline with Tween-80
[14] = dose: 100.0 mg/kg/injection, schedule: Q04DX003 (ip), vehicle: saline with Tween-80
[15] = dose: 400.0 mg/kg/injection, schedule: Q01DX009 (ip), vehicle: saline with Tween-80
[16] = dose: 6.25 mg/kg/injection, schedule: Q01DX009 (ip), vehicle: saline with Tween-80

CCCCCCCC(=O)N/N=C(\CO)[C@]1(O)Cc2c(O)c3c(c(O)c2[C@@H](OC2CC(N)C(O)C(C)O2)C1)C(=O)c1c(OC)cccc1C3=O (some centres undefined)
T/C (dose: 3.13 mg/kg/injection, schedule: Q01DX001 (ip), vehicle: water): 168 % of control | T/C (dose: 6.25 mg/kg/injection, schedule: Q01DX001 (ip), vehicle: water): 157 % of control and 200 % of control | T/C (dose: 12.5 mg/kg/injection, schedule: Q01DX001 (ip), vehicle: water): 173 % of control and 212 % of control | T/C (dose: 25.0 mg/kg/injection, schedule: Q01DX001 (ip), vehicle: water): 174 % of control and 220 % of control and 231 % of control | T/C (dose: 50.0 mg/kg/injection, schedule: Q01DX001 (ip), vehicle: water): 91 % of control and 228 % of control and 236 % of control

CCCCCCCCCCCCCCCCCCOC(=O)Cc1ccc(N(CCCl)CCCl)cc1
T/C (dose: 180.0 mg/kg/injection, schedule: Q04DX003 (ip), vehicle: saline with Tween-80): 102 % of control | T/C (dose: 266.0 mg/kg/injection, schedule: Q04DX003 (ip), vehicle: saline with Tween-80): 107 % of control

Cc1ccc(/C=N\N=C\c2ccc(C)cc2)cc1
T/C [1]: 100 % of control | T/C [2]: 88 % of control

CCCCNC(=S)S
T/C (dose: 100.0 mg/kg/injection, schedule: Q01DX009 (ip), vehicle: other): 90 % of control | T/C (dose: 200.0 mg/kg/injection, schedule: Q01DX009 (ip), vehicle: other): 94 % of control

CCC[CH2][Sn]1([CH2]CCC)[O]OC(c2ccccc2)[O]1 (centres undefined)
T/C (dose: 0.19 mg/kg/injection, schedule: Q01DX009 (ip), vehicle: Klucel (hydroxypropylcellulose) (HPC)): 98 % of control | T/C (dose: 0.38 mg/kg/injection, schedule: Q01DX009 (ip), vehicle: Klucel (hydroxypropylcellulose) (HPC)): 87 % of control | T/C (dose: 0.75 mg/kg/injection, schedule: Q01DX009 (ip), vehicle: Klucel (hydroxypropylcellulose) (HPC)): 107 % of control | T/C (dose: 1.5 mg/kg/injection, schedule: Q01DX009 (ip), vehicle: Klucel (hydroxypropylcellulose) (HPC)): 102 % of control | T/C (dose: 3.0 mg/kg/injection, schedule: Q01DX009 (ip), vehicle: Klucel (hydroxypropylcellulose) (HPC)): 101 % of control | T/C (dose: 3.0 mg/kg/injection, schedule: Q01DX009 (ip), vehicle: saline with Tween-80): 102 % of control

C=C(C)C1C2CC3(C)C4(CO4)C4OC4C3(O)C1C(=O)O2 (centres undefined)
T/C (dose: 0.07 mg/kg/injection, schedule: Q01DX009 (ip), vehicle: Klucel (hydroxypropylcellulose) (HPC)): 102 % of control | T/C (dose: 0.15 mg/kg/injection, schedule: Q01DX009 (ip), vehicle: Klucel (hydroxypropylcellulose) (HPC)): 104 % of control | T/C (dose: 0.3 mg/kg/injection, schedule: Q01DX009 (ip), vehicle: Klucel (hydroxypropylcellulose) (HPC)): 106 % of control | T/C (dose: 0.6 mg/kg/injection, schedule: Q01DX009 (ip), vehicle: Klucel (hydroxypropylcellulose) (HPC)): 98 % of control | T/C (dose: 1.2 mg/kg/injection, schedule: Q01DX009 (ip), vehicle: Klucel (hydroxypropylcellulose) (HPC)): 101 % of control

CC(C)=CCN1CCC2(C)c3cc(O)ccc3CC1C2C (centres undefined)
T/C (dose: 0.39 mg/kg/injection, schedule: Q01DX009 (ip), vehicle: Klucel (hydroxypropylcellulose) (HPC)): 123 % of control | T/C (dose: 0.78 mg/kg/injection, schedule: Q01DX009 (ip), vehicle: Klucel (hydroxypropylcellulose) (HPC)): 102 % of control | T/C [3]: 123 % of control | T/C [4]: 105 % of control

O=C(Nc1ccccc1)Nc1cccc(Cl)c1
T/C [1]: 100 % of control | T/C [2]: 98 % of control | T/C [5]: 96 % of control

CNCCOc1ccc(Cl)cc1
T/C [6]: 103 % of control | T/C [1]: 98 % of control | T/C [2]: 101 % of control

CCN(CC)CCOC(=O)c1ccc(NC(=O)Nc2ccc(C(=O)OCCN(CC)CC)cc2)cc1
T/C [7]: 95 % of control | T/C [8]: 88 % of control | T/C [6]: 97 % of control | T/C [9]: 102 % of control | T/C [1]: 110 % of control | T/C [2]: 108 % of control

CC1=NN(c2ccccc2)C(=O)C1N=Nc1ccccc1S(=O)(=O)O (centres undefined)
T/C [1]: 90 % of control

CCOc1ccc(NC(=O)Nc2cccc3ccccc23)cc1
T/C [3]: 91 % of control | T/C [10]: 91 % of control | T/C [4]: 86 % of control and 91 % of control

Cl/C(=N\Nc1ccccc1)c1ccccc1
T/C [3]: 97 % of control | T/C [10]: 86 % of control | T/C [4]: 90 % of control

CN(C)CCCN1c2ccccc2Sc2cnccc21
T/C [9]: 115 % of control | T/C [11]: 93 % of control | T/C [12]: 115 % of control

CCCCC(=O)NN
T/C [13]: 102 % of control | T/C [6]: 96 % of control | T/C [1]: 100 % of control

COC(=O)N1C=Cc2ccccc2C1C#N (centres undefined)
T/C [1]: 95 % of control | T/C [2]: 87 % of control

O=C(OCc1ccccc1)C(Cl)(Cl)Cl
T/C [14]: 105 % of control | T/C (dose: 200.0 mg/kg/injection, schedule: Q04DX003 (ip), vehicle: saline with Tween-80): 100 % of control | T/C (dose: 400.0 mg/kg/injection, schedule: Q04DX003 (ip), vehicle: saline with Tween-80): 102 % of control

CN(C)CCC(c1ccccc1)c1cc(Cl)ccn1 (centres undefined)
T/C [7]: 100 % of control | T/C [8]: 103 % of control | T/C [9]: 97 % of control | T/C [11]: 97 % of control | T/C [12]: 99 % of control

N#CC1C(=O)c2ccccc2C1=O
T/C [6]: 114 % of control | T/C [1]: 106 % of control

CC(C)CC(NC(=O)C(C)NC(=O)CN)C(=O)O (stereo not drawn) (H-Gly-Ala-Leu-OH; configuration not given here)
T/C [1]: 97 % of control | T/C [2]: 96 % of control | T/C [5]: 98 % of control | T/C [15]: 103 % of control

ClCCN(CCCl)CCN1c2ccccc2Sc2ccccc21
T/C (dose: 1.56 mg/kg/injection, schedule: Q01DX009 (ip), vehicle: saline with Tween-80): 105 % of control and 122 % of control | T/C (dose: 3.12 mg/kg/injection, schedule: Q04DX003 (ip), vehicle: Klucel (hydroxypropylcellulose) (HPC)): 107 % of control | T/C [16]: 123 % of control | T/C (dose: 6.25 mg/kg/injection, schedule: Q04DX003 (ip), vehicle: Klucel (hydroxypropylcellulose) (HPC)): 115 % of control

CC(C)CC(NC(=O)C(Cc1ccccc1)NC(=O)OCc1ccccc1)C(=O)O (stereo not drawn) (Cbz-Phe-Leu-OH; configuration not given here)
T/C [6]: 92 % of control | T/C [1]: 93 % of control | T/C [2]: 90 % of control | T/C [5]: 87 % of control

CCCC(=O)OCC1OC(n2cnc3c(=S)nc[nH]c32)C(OC(=O)CCC)C1OC(=O)CCC (centres undefined)
T/C [6]: 105 % of control | T/C [1]: 90 % of control

O=C1N[C@H]2[C@H](CS[C@H]2CCCCC(=O)N(CCP(c2ccccc2)c2ccccc2)CCP(c2ccccc2)c2ccccc2)N1
T/C (dose: 25.0 mg/kg/injection, schedule: Q01DX009 (ip), vehicle: Klucel (hydroxypropylcellulose) (HPC)): 112 % of control | T/C (dose: 50.0 mg/kg/injection, schedule: Q01DX009 (ip), vehicle: Klucel (hydroxypropylcellulose) (HPC)): 120 % of control | T/C (dose: 200.0 mg/kg/injection, schedule: Q01DX009 (ip), vehicle: Klucel (hydroxypropylcellulose) (HPC)): 123 % of control | T/C (dose: 400.0 mg/kg/injection, schedule: Q01DX009 (ip), vehicle: Klucel (hydroxypropylcellulose) (HPC)): 108 % of control

CCC1CCCCN1C(=S)N/N=C(\C)c1ccccn1 (centres undefined)
T/C [16]: 96 % of control | T/C [13]: 95 % of control

COC(=O)CC(=O)C=P(c1ccccc1)(c1ccccc1)c1ccccc1
T/C [13]: 98 % of control | T/C [6]: 103 % of control | T/C [1]: 107 % of control | T/C [2]: 113 % of control

COC(=O)c1ccc(=O)c2nc3/c(=C/O)c(O)cc(=O)c3[nH]c12
T/C (dose: 0.01 mg/kg/injection, schedule: Q01DX009 (ip), vehicle: saline with Tween-80): 102 % of control | T/C (dose: 0.01 mg/kg/injection, schedule: Q04DX003 (ip), vehicle: saline with Tween-80): 91 % of control | T/C (dose: 0.02 mg/kg/injection, schedule: Q01DX009 (ip), vehicle: saline with Tween-80): 90 % of control | T/C (dose: 0.02 mg/kg/injection, schedule: Q04DX003 (ip), vehicle: saline with Tween-80): 102 % of control | T/C (dose: 0.04 mg/kg/injection, schedule: Q01DX009 (ip), vehicle: saline with Tween-80): 95 % of control | T/C (dose: 0.04 mg/kg/injection, schedule: Q04DX003 (ip), vehicle: saline with Tween-80): 106 % of control

CCOC(=O)/C=C/c1ccc2c(c1)OCO2
T/C (dose: 66.0 mg/kg/injection, schedule: Q04DX003 (ip), vehicle: saline with Tween-80): 97 % of control | T/C [2]: 104 % of control | T/C [14]: 97 % of control | T/C (dose: 150.0 mg/kg/injection, schedule: Q04DX003 (ip), vehicle: saline with Tween-80): 100 % of control | T/C [5]: 106 % of control | T/C [15]: 102 % of control

Source: PubChem BioAssay AID192 (DTP/NCI, 2004)
